Measured values: patent US20230017045A1, “PYRIDINE AND PYRIMIDINE CARBOXYLATE HERBICIDES AND METHODS OF USE THEREOF” (Dow AgroSciences LLC, priority 2017, published 2023)

Each molecule was assayed on test plant species (assay: Post-emergent herbicidal activity test (greenhouse, foliar spray, visual growth reduction)). Details: post-emergence, 336 h, ECHCG: barnyardgrass (Echinochloa crus-galli), 140 g ai/ha, 14 days after application, read-out: Visual Growth Reduction (%) 14 Days After Application, ECHCG.
Type: in vivo
Outline: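 Greenhouse plants at first–second true leaf stage sprayed overhead at 187 L/ha with compound in acetone/water/isopropanol/DMSO/crop oil/X-77 carrier; controls received solvent blank. Injury rated visually after 14 d on a 0–100% scale versus untreated and control plants, converted to growth reduction.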
With `COC(=O)c1nc(-c2ccc(C(F)F)cc2)ncc1Cl` [F319, Methyl 5-chloro-2-(4-(difluoromethyl)phenyl)pyrimidine-4-carboxylate] the pest or weed control at 140 g/ha was 0 to 29%.
Work on `COC(=O)c1nc(-c2cc(SC)c(C(F)(F)F)cc2Cl)c(F)cc1Cl` [F332, Methyl 3-chloro-6-(2-chloro-5-(methylthio)-4-(trifluoromethyl)phenyl) 5-fluoropicolinate] yielded a pest or weed control at 140 g/ha of 0 to 29%.
`COC(=O)c1nc(-c2c(Cl)cc(C(F)(F)F)cc2I)ccc1Cl` [F214, methyl 3-chloro-6-(2-chloro-6-iodo-4-(trifluoromethyl)phenyl)picolinate] showed a pest or weed control at 140 g/ha of 0 to 29%.

Same assay, conditions: post-emergence, 336 h, IPOHE: ivy-leaf morning glory (Ipomoea hederacea), 140 g ai/ha, 14 days after application, read-out: Visual Growth Reduction (%) 14 Days After Application, IPOHE
`COC(=O)c1nc(-c2ccc(C(F)F)cc2)ncc1Cl` [F319, Methyl 5-chloro-2-(4-(difluoromethyl)phenyl)pyrimidine-4-carboxylate] showed a pest or weed control at 140 g/ha of 30 to 44%.
`COC(=O)c1nc(-c2cc(SC)c(C(F)(F)F)cc2Cl)c(F)cc1Cl` [F332, Methyl 3-chloro-6-(2-chloro-5-(methylthio)-4-(trifluoromethyl)phenyl) 5-fluoropicolinate] showed a pest or weed control at 140 g/ha of 0 to 29%.
In the case of `COC(=O)c1nc(-c2c(Cl)cc(C(F)(F)F)cc2I)ccc1Cl` [F214, methyl 3-chloro-6-(2-chloro-6-iodo-4-(trifluoromethyl)phenyl)picolinate], the pest or weed control at 140 g/ha is reported as 95 to 100%.

Same assay, conditions: post-emergence, 336 h, KCHSC: kochia (Bassia scoparia), 140 g ai/ha, 14 days after application, read-out: Visual Growth Reduction (%) 14 Days After Application, KCHSC
`COC(=O)c1nc(-c2ccc(C(F)F)cc2)ncc1Cl` [F319, Methyl 5-chloro-2-(4-(difluoromethyl)phenyl)pyrimidine-4-carboxylate] showed a pest or weed control at 140 g/ha of 0 to 29%.
`COC(=O)c1nc(-c2cc(SC)c(C(F)(F)F)cc2Cl)c(F)cc1Cl` [F332, Methyl 3-chloro-6-(2-chloro-5-(methylthio)-4-(trifluoromethyl)phenyl) 5-fluoropicolinate] was tested, and the pest or weed control at 140 g/ha was 30 to 44%.
In the case of `COC(=O)c1nc(-c2c(Cl)cc(C(F)(F)F)cc2I)ccc1Cl` [F214, methyl 3-chloro-6-(2-chloro-6-iodo-4-(trifluoromethyl)phenyl)picolinate], the pest or weed control at 140 g/ha is reported as 75 to 84%.

Same assay, conditions: post-emergence, 336 h, ORYSA: rice (Oryza sativa), 140 g ai/ha, 14 days after application, read-out: Visual Growth Reduction (%) 14 Days After Application, ORYSA
`COC(=O)c1nc(-c2ccc(C(F)F)cc2)ncc1Cl` [F319, Methyl 5-chloro-2-(4-(difluoromethyl)phenyl)pyrimidine-4-carboxylate] showed a pest or weed control at 140 g/ha of 0 to 29%.
With `COC(=O)c1nc(-c2cc(SC)c(C(F)(F)F)cc2Cl)c(F)cc1Cl` [F332, Methyl 3-chloro-6-(2-chloro-5-(methylthio)-4-(trifluoromethyl)phenyl) 5-fluoropicolinate] the pest or weed control at 140 g/ha was 0 to 29%.
In the case of `COC(=O)c1nc(-c2c(Cl)cc(C(F)(F)F)cc2I)ccc1Cl` [F214, methyl 3-chloro-6-(2-chloro-6-iodo-4-(trifluoromethyl)phenyl)picolinate], the pest or weed control at 140 g/ha is reported as 0 to 29%.

Same assay, conditions: post-emergence, 336 h, SETFA: giant foxtail (Setaria faberi), 140 g ai/ha, 14 days after application, read-out: Visual Growth Reduction (%) 14 Days After Application, SETFA
For `COC(=O)c1nc(-c2ccc(C(F)F)cc2)ncc1Cl` [F319, Methyl 5-chloro-2-(4-(difluoromethyl)phenyl)pyrimidine-4-carboxylate], the pest or weed control at 140 g/ha was 0 to 29%.
Work on `COC(=O)c1nc(-c2cc(SC)c(C(F)(F)F)cc2Cl)c(F)cc1Cl` [F332, Methyl 3-chloro-6-(2-chloro-5-(methylthio)-4-(trifluoromethyl)phenyl) 5-fluoropicolinate] yielded a pest or weed control at 140 g/ha of 0 to 29%.
With `COC(=O)c1nc(-c2c(Cl)cc(C(F)(F)F)cc2I)ccc1Cl` [F214, methyl 3-chloro-6-(2-chloro-6-iodo-4-(trifluoromethyl)phenyl)picolinate] the pest or weed control at 140 g/ha was 75 to 84%.

Same assay, conditions: post-emergence, 336 h, SORVU: grain sorghum (Sorghum vulgare), 140 g ai/ha, 14 days after application, read-out: Visual Growth Reduction (%) 14 Days After Application, SORVU
Molecule `COC(=O)c1nc(-c2ccc(C(F)F)cc2)ncc1Cl` [F319, Methyl 5-chloro-2-(4-(difluoromethyl)phenyl)pyrimidine-4-carboxylate] has a pest or weed control at 140 g/ha of 0 to 29%.
`COC(=O)c1nc(-c2cc(SC)c(C(F)(F)F)cc2Cl)c(F)cc1Cl` [F332, Methyl 3-chloro-6-(2-chloro-5-(methylthio)-4-(trifluoromethyl)phenyl) 5-fluoropicolinate] showed a pest or weed control at 140 g/ha of 0 to 29%.
`COC(=O)c1nc(-c2c(Cl)cc(C(F)(F)F)cc2I)ccc1Cl` [F214, methyl 3-chloro-6-(2-chloro-6-iodo-4-(trifluoromethyl)phenyl)picolinate] showed a pest or weed control at 140 g/ha of 85 to 94%.

Same assay, conditions: post-emergence, 336 h, STEME: common chickweed (Stellaria media), 140 g ai/ha, 14 days after application, read-out: Visual Growth Reduction (%) 14 Days After Application, STEME
In the case of `COC(=O)c1nc(-c2ccc(C(F)F)cc2)ncc1Cl` [F319, Methyl 5-chloro-2-(4-(difluoromethyl)phenyl)pyrimidine-4-carboxylate], the pest or weed control at 140 g/ha is reported as 0 to 29%.
`COC(=O)c1nc(-c2cc(SC)c(C(F)(F)F)cc2Cl)c(F)cc1Cl` [F332, Methyl 3-chloro-6-(2-chloro-5-(methylthio)-4-(trifluoromethyl)phenyl) 5-fluoropicolinate] showed a pest or weed control at 140 g/ha of 0 to 29%.
`COC(=O)c1nc(-c2c(Cl)cc(C(F)(F)F)cc2I)ccc1Cl` [F214, methyl 3-chloro-6-(2-chloro-6-iodo-4-(trifluoromethyl)phenyl)picolinate] showed a pest or weed control at 140 g/ha of 30 to 44%.

Same assay, conditions: post-emergence, 336 h, TRZAS: wheat, spring (Triticum aestivum), 140 g ai/ha, 14 days after application, read-out: Visual Growth Reduction (%) 14 Days After Application, TRZAS
`COC(=O)c1nc(-c2ccc(C(F)F)cc2)ncc1Cl` [F319, Methyl 5-chloro-2-(4-(difluoromethyl)phenyl)pyrimidine-4-carboxylate] showed a pest or weed control at 140 g/ha of 0 to 29%.
For `COC(=O)c1nc(-c2cc(SC)c(C(F)(F)F)cc2Cl)c(F)cc1Cl` [F332, Methyl 3-chloro-6-(2-chloro-5-(methylthio)-4-(trifluoromethyl)phenyl) 5-fluoropicolinate], the pest or weed control at 140 g/ha was 0 to 29%.
`COC(=O)c1nc(-c2c(Cl)cc(C(F)(F)F)cc2I)ccc1Cl` [F214, methyl 3-chloro-6-(2-chloro-6-iodo-4-(trifluoromethyl)phenyl)picolinate] gave a pest or weed control at 140 g/ha of 75 to 84%.

Same assay, conditions: post-emergence, 336 h, blackgrass (Alopecurus myosuroides), 14 Days After Application, 140 g ai/ha, read-out: Visual Growth Reduction (%) ALOMY
In the case of `COC(=O)c1nc(-c2ccc(C(F)F)cc2)ncc1Cl` [F319, Methyl 5-chloro-2-(4-(difluoromethyl)phenyl)pyrimidine-4-carboxylate], the pest or weed control at 140 g/ha is reported as 0 to 29%.
Molecule `COC(=O)c1nc(-c2cc(SC)c(C(F)(F)F)cc2Cl)c(F)cc1Cl` [F332, Methyl 3-chloro-6-(2-chloro-5-(methylthio)-4-(trifluoromethyl)phenyl) 5-fluoropicolinate] has a pest or weed control at 140 g/ha of 0 to 29%.
Work on `COC(=O)c1nc(-c2c(Cl)cc(C(F)(F)F)cc2I)ccc1Cl` [F214, methyl 3-chloro-6-(2-chloro-6-iodo-4-(trifluoromethyl)phenyl)picolinate] yielded a pest or weed control at 140 g/ha of 45 to 59%.

Same assay, conditions: post-emergence, 336 h, canada thistle (Cirsium arvense), 14 Days After Application, 140 g ai/ha, read-out: Visual Growth Reduction (%) CIRAR
Molecule `COC(=O)c1nc(-c2ccc(C(F)F)cc2)ncc1Cl` [F319, Methyl 5-chloro-2-(4-(difluoromethyl)phenyl)pyrimidine-4-carboxylate] has a pest or weed control at 140 g/ha of 0 to 29%.
With `COC(=O)c1nc(-c2c(Cl)cc(C(F)(F)F)cc2I)ccc1Cl` [F214, methyl 3-chloro-6-(2-chloro-6-iodo-4-(trifluoromethyl)phenyl)picolinate] the pest or weed control at 140 g/ha was 85 to 94%.

Same assay, conditions: post-emergence, 336 h, crabgrass (Digitaria sanguinalis), 14 Days After Application, 140 g ai/ha, read-out: Visual Growth Reduction (%) DIGSA
`COC(=O)c1nc(-c2ccc(C(F)F)cc2)ncc1Cl` [F319, Methyl 5-chloro-2-(4-(difluoromethyl)phenyl)pyrimidine-4-carboxylate] showed a pest or weed control at 140 g/ha of 0 to 29%.
With `COC(=O)c1nc(-c2cc(SC)c(C(F)(F)F)cc2Cl)c(F)cc1Cl` [F332, Methyl 3-chloro-6-(2-chloro-5-(methylthio)-4-(trifluoromethyl)phenyl) 5-fluoropicolinate] the pest or weed control at 140 g/ha was 0 to 29%.
With `COC(=O)c1nc(-c2c(Cl)cc(C(F)(F)F)cc2I)ccc1Cl` [F214, methyl 3-chloro-6-(2-chloro-6-iodo-4-(trifluoromethyl)phenyl)picolinate] the pest or weed control at 140 g/ha was 95 to 100%.

Same assay, conditions: post-emergence, 336 h, lambsquarters (Chenopodium album), 14 Days After Application, 140 g ai/ha, read-out: Visual Growth Reduction (%) CHEAL
In the case of `COC(=O)c1nc(-c2ccc(C(F)F)cc2)ncc1Cl` [F319, Methyl 5-chloro-2-(4-(difluoromethyl)phenyl)pyrimidine-4-carboxylate], the pest or weed control at 140 g/ha is reported as 30 to 44%.
`COC(=O)c1nc(-c2cc(SC)c(C(F)(F)F)cc2Cl)c(F)cc1Cl` [F332, Methyl 3-chloro-6-(2-chloro-5-(methylthio)-4-(trifluoromethyl)phenyl) 5-fluoropicolinate] gave a pest or weed control at 140 g/ha of 0 to 29%.
Work on `COC(=O)c1nc(-c2c(Cl)cc(C(F)(F)F)cc2I)ccc1Cl` [F214, methyl 3-chloro-6-(2-chloro-6-iodo-4-(trifluoromethyl)phenyl)picolinate] yielded a pest or weed control at 140 g/ha of 95 to 100%.

Same assay, conditions: post-emergence, 336 h, redroot pigweed (Amaranthus retroflexus), 14 Days After Application, 140 g ai/ha, read-out: Visual Growth Reduction (%) AMARE
In the case of `COC(=O)c1nc(-c2ccc(C(F)F)cc2)ncc1Cl` [F319, Methyl 5-chloro-2-(4-(difluoromethyl)phenyl)pyrimidine-4-carboxylate], the pest or weed control at 140 g/ha is reported as 0 to 29%.
`COC(=O)c1nc(-c2cc(SC)c(C(F)(F)F)cc2Cl)c(F)cc1Cl` [F332, Methyl 3-chloro-6-(2-chloro-5-(methylthio)-4-(trifluoromethyl)phenyl) 5-fluoropicolinate] was tested, and the pest or weed control at 140 g/ha was 0 to 29%.
`COC(=O)c1nc(-c2c(Cl)cc(C(F)(F)F)cc2I)ccc1Cl` [F214, methyl 3-chloro-6-(2-chloro-6-iodo-4-(trifluoromethyl)phenyl)picolinate] showed a pest or weed control at 140 g/ha of 75 to 84%.

Same assay, conditions: post-emergence, 336 h, wild oat (Avena fatua), 14 Days After Application, 140 g ai/ha, read-out: Visual Growth Reduction (%) AVEFA
`COC(=O)c1nc(-c2ccc(C(F)F)cc2)ncc1Cl` [F319, Methyl 5-chloro-2-(4-(difluoromethyl)phenyl)pyrimidine-4-carboxylate] was tested, and the pest or weed control at 140 g/ha was 0 to 29%.
With `COC(=O)c1nc(-c2cc(SC)c(C(F)(F)F)cc2Cl)c(F)cc1Cl` [F332, Methyl 3-chloro-6-(2-chloro-5-(methylthio)-4-(trifluoromethyl)phenyl) 5-fluoropicolinate] the pest or weed control at 140 g/ha was 0 to 29%.
`COC(=O)c1nc(-c2c(Cl)cc(C(F)(F)F)cc2I)ccc1Cl` [F214, methyl 3-chloro-6-(2-chloro-6-iodo-4-(trifluoromethyl)phenyl)picolinate] gave a pest or weed control at 140 g/ha of 60 to 74%.

Same assay, conditions: post-emergence, 336 h, yellow nutsedge (Cyperus esculentus), 14 Days After Application, 140 g ai/ha, read-out: Visual Growth Reduction (%) CYPES
`COC(=O)c1nc(-c2ccc(C(F)F)cc2)ncc1Cl` [F319, Methyl 5-chloro-2-(4-(difluoromethyl)phenyl)pyrimidine-4-carboxylate] gave a pest or weed control at 140 g/ha of 0 to 29%.
In the case of `COC(=O)c1nc(-c2cc(SC)c(C(F)(F)F)cc2Cl)c(F)cc1Cl` [F332, Methyl 3-chloro-6-(2-chloro-5-(methylthio)-4-(trifluoromethyl)phenyl) 5-fluoropicolinate], the pest or weed control at 140 g/ha is reported as 0 to 29%.
Work on `COC(=O)c1nc(-c2c(Cl)cc(C(F)(F)F)cc2I)ccc1Cl` [F214, methyl 3-chloro-6-(2-chloro-6-iodo-4-(trifluoromethyl)phenyl)picolinate] yielded a pest or weed control at 140 g/ha of 0 to 29%.
